The numbers were not newly measured in patent US6444675B2, “4-alkyl and 4-cycloalkyl derivatives of dihydropyridine NPY antagonists” (Bristol-Myers Squibb Company, priority 2000, dated 2002), which cites them from elsewhere.

In series [1] the target is T1, I-125 Bolton-Hunter labeled NPY in human neuroblastoma cells (SK-N-MC) (Homo sapiens, UniProt P25929).
T1 construct: displaces I-125 Bolton-Hunter labeled NPY in human neuroblastoma cells (SK-N-MC); host or cells: SK-N-MC human neuroblastoma cells (endogenous receptor)
T1 sequence (P25929 1-384): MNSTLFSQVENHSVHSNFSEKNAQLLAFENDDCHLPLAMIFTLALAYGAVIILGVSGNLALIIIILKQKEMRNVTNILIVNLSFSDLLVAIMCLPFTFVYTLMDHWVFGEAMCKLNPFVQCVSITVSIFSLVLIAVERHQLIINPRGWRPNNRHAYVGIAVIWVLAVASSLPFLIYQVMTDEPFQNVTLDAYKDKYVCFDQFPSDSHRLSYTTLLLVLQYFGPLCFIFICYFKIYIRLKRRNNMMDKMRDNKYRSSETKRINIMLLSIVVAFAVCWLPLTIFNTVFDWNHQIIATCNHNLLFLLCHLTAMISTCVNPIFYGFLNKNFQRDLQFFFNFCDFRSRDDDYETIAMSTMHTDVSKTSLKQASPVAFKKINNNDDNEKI

Series [2] has as its system NPY-induced increase in intracellular Ca++ in SK-N-MC cells.
Series [3] concerns NPY-induced pressor response. The settings on record: pithed rat.
Series [4] relates to NPY-induced contractions in guinea pig basilar artery.
In series [5] the target is T2, I-125 labeled NPY and PYY in human neuroblastoma cells (Homo sapiens, UniProt P25929).
T2 construct: displacing I-125 labeled NPY and PYY in human neuroblastoma cells; endogenous receptor
T2 sequence (P25929 1-384): T1 sequence (P25929 1-384)

Series [6] has as its system NPY-related increases in diastolic blood pressure. To be noted: anesthetized guinea pig model.

Regarding `NC(N)=NCCC[C@@H](NC(=O)C(c1ccccc1)c1ccccc1)C(=O)NCc1ccc(O)cc1` [BIBP 3226], the “displacement of I-125 Bolton-Hunter labeled NPY” value in series [1] is “displaces”. In addition, the “antagonism of NPY-induced increase in intracellular Ca++” value in series [2] is “antagonized”. In addition, the “antagonism of NPY-induced pressor response” value in series [3] is “antagonizing”.

Take `O=P(O)(O)OC1[C@H](OP(=O)(O)O)[C@H](O)C(O)[C@H](O)[C@H]1OP(=O)(O)O` (stereo partly drawn) [D-Myo-inositol-1,2,6-triphosphate]: the “antagonism of NPY-induced contractions” value in series [4] is listed as “potent but non-competitive antagonist”.

For `CN(C)CC1CCC(CN=C(N)c2ccc(C[C@@H](NC(=O)[C@@H](Cc3ccccc3)NS(=O)(=O)c3ccc4ccccc4c3)C(=O)N3CCCC3)cc2)CC1` (stereo partly drawn) [SR 120819A], the “displacement of I-125 labeled NPY and PYY” value in series [5] was “displacing”. The “antagonism of NPY-related increases in diastolic blood pressure” value in series [6] is “antagonized”.
